Laboratory results: PubChem BioAssay (NCI)
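Tested at 5 concentrations; 48 h exposure; 96-well plates; endpoints linearly interpolated, else capped at highest concentration. GI50 = concentration required for 50% inhibition of growth. TGI is the concentration that stops growth completely.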

Key:
Experiment in all cases: inhibition of tumour cell growth, NCI panel, 48 h; in the data active = GI50 below about 0.43 µM; inactive = the rest
[1] = system: HOP-92 NSCLC
[2] = system: BT-549 breast
[3] = system: NCI-H460 lung
[4] = system: HT29 colon
[5] = system: COLO 205 colon
[6] = system: MOLT-4 leukemia
[7] = system: OVCAR-8 ovarian
[8] = system: SK-MEL-2 melanoma
[9] = system: NCI-H522 lung
[10] = system: HCC-2998 colon
[11] = system: SW-620 colon
[12] = system: MALME-3M melanoma
[13] = system: RPMI-8226 leukemia
[14] = system: LOX IMVI melanoma
[15] = system: HCT-116 colon
[16] = system: SK-MEL-5 melanoma
[17] = system: MDA-MB-231 breast
[18] = system: SF-295 CNS
[19] = system: HOP-62 NSCLC
[20] = system: UACC-62 melanoma
[21] = system: HCT-15 colon
[22] = system: CAKI-1 renal
[23] = system: NCI-H23 lung
[24] = system: SR leukemia
[25] = system: OVCAR-3 ovarian
[26] = system: MCF7 breast
[27] = system: HS 578T breast
[28] = system: TK-10 renal
[29] = system: SNB-75 CNS
[30] = system: NCI-H226 lung
[31] = system: HL-60(TB) leukemia
[32] = system: NCI/ADR-RES ovarian
[33] = system: CCRF-CEM leukemia
[34] = system: OVCAR-4 ovarian
[35] = system: U251 CNS
[36] = system: T-47D breast
[37] = system: K-562 leukemia
[38] = system: OVCAR-5 ovarian
[39] = system: M14 melanoma
[40] = system: IGROV1 ovarian
[41] = system: UO-31 renal
[42] = system: SN12C renal
[43] = system: A498 renal
[44] = system: PC-3 prostate
[45] = system: UACC-257 melanoma
[46] = system: SK-OV-3 ovarian
[47] = system: KM12 colon
[48] = system: ACHN renal
[49] = system: SF-539 CNS
[50] = system: SNB-19 CNS
[51] = system: RXF 393 renal
[52] = system: 786-0 renal
[53] = system: EKVX NSCLC
[54] = system: DU-145 prostate
[55] = system: SK-MEL-28 melanoma
[56] = system: A549 NSCLC
[57] = system: SF-268 CNS

CSCCC(NC(=O)CNC(=O)C(CC(=O)O)NC(=O)C(NC(=O)C(NC(=O)C(NC(=O)CNC(=O)C(CCC(N)=O)NC(=O)C(CCSC)NC(=O)C(CC(=O)O)NC(=O)C(C)NC(=O)C(C)NC(=O)C(NC(=O)C(CO)NC(=O)C(N)CC(C)C)C(C)O)C(C)C)C(C)C)C(C)O)C(=O)NC(C)C(=O)NC(CO)C(=O)NCC(=O)NC(CC(C)C)C(=O)NC(CC(=O)O)C(=O)NC(CCCCN)C(=O)NC(CC(=O)O)C(=O)NC(Cc1ccc(O)cc1)C(=O)NC(CC(C)C)C(=O)NC(CCCCN)C(=O)N1CCCC1C(=O)NC(CC(=O)O)C(=O)NC(CC(=O)O)C(=O)O (centres undefined)
inactive: GI50 [1] > 82.5 µM | GI50 [2] > 82.5 µM | GI50 [3] > 82.5 µM | GI50 [4] > 82.5 µM | GI50 [5] > 82.5 µM | GI50 [6] > 82.5 µM | GI50 [7] > 82.5 µM | GI50 [8] > 82.5 µM | GI50 [9] > 82.5 µM | GI50 [10] > 82.5 µM | GI50 [11] > 82.5 µM | GI50 [12] > 82.5 µM | GI50 [13] > 82.5 µM | GI50 [14] > 82.5 µM | GI50 [15] > 82.5 µM | GI50 [16] > 82.5 µM | GI50 [17] > 82.5 µM | GI50 [18] > 82.5 µM | GI50 [19] > 82.5 µM | GI50 [20] > 82.5 µM | GI50 [21] > 82.5 µM | GI50 [22] > 82.5 µM | GI50 [23] > 82.5 µM | GI50 [24] > 82.5 µM | GI50 [25] > 82.5 µM | GI50 [26] > 82.5 µM | GI50 [27] > 82.5 µM | GI50 [28] > 82.5 µM | GI50 [29] > 82.5 µM | GI50 [30] > 82.5 µM | GI50 [31] > 82.5 µM | GI50 [32] > 82.5 µM | GI50 [33] > 82.5 µM | GI50 [34] > 82.5 µM | GI50 [35] > 82.5 µM | GI50 [36] > 82.5 µM | GI50 [37] > 82.5 µM | GI50 [38] > 82.5 µM | GI50 [39] > 82.5 µM | GI50 [40] > 82.5 µM | GI50 [41] > 82.5 µM | GI50 [42] > 82.5 µM | GI50 [43] > 82.5 µM | GI50 [44] > 82.5 µM | GI50 [45] > 82.5 µM | GI50 [46] > 82.5 µM | GI50 [47] > 82.5 µM | GI50 [48] > 82.5 µM | GI50 [49] > 82.5 µM | GI50 [50] > 82.5 µM | GI50 [51] > 82.5 µM | GI50 [52] > 82.5 µM | GI50 [53] > 82.5 µM | GI50 [54] > 82.5 µM | GI50 [55] > 82.5 µM | GI50 [56] > 82.5 µM | GI50 [57] > 82.5 µM
> 82.5 µM: TGI [1] | TGI [2] | TGI [3] | TGI [4] | TGI [5] | TGI [6] | TGI [7] | TGI [8] | TGI [9] | TGI [10] | TGI [11] | TGI [12] | TGI [13] | TGI [14] | TGI [15] | TGI [16] | TGI [17] | TGI [18] | TGI [19] | TGI [20] | TGI [21] | TGI [22] | TGI [23] | TGI [24] | TGI [25] | TGI [26] | TGI [27] | TGI [28] | TGI [29] | TGI [30] | TGI [31] | TGI [32] | TGI [33] | TGI [34] | TGI [35] | TGI [36] | TGI [37] | TGI [38] | TGI [39] | TGI [40] | TGI [41] | TGI [42] | TGI [43] | TGI [44] | TGI [45] | TGI [46] | TGI [47] | TGI [48] | TGI [49] | TGI [50] | TGI [51] | TGI [52] | TGI [53] | TGI [54] | TGI [55] | TGI [56] | TGI [57]
